Results as given in publication PMC3401907, “Cellular Uptakes, Biostabilities and Anti-miR-210 Activities of Chiral Arginine-PNAs in Leukaemic K562 Cells” (Chembiochem, 2012).

Experiments:
[1] = tested on: K562 cells; test: Cellular uptake (FACS) after pre-incubation with trypsin; format: cell-based, human; details: PNA 2 μM pre-incubated 10 min at room temperature with trypsin (0.012–0.025 %), then K562 cells in the absence of serum
Experimental: In order to explore the effect of protection against proteases further, pre-incubation of the PNA–peptide conjugate PNA2-Fl and the modified PNAs PNA3-Fl, PNA4-Fl, PNA5-Fl and PNA6-Fl was performed with trypsin (0.012–0.025 %) before allowing interaction with target K562 cells in the absence of serum (see Figure 4). […] The embedding of arginine residues into the PNA backbone thus allows efficient cellular uptake to be achieved without the risk of degradation even by a basic amino-acid-specific peptidase. In contrast, the carrier peptide of PNA2-Fl is to a certain degree an Achilles' heel of the molecule, leading to possible degradation by proteases, an effect worth considering in view of possible developments of PNAs as drugs based on anti-miR activity.
(§1) FACS analysis: For determination of fluorescence intensity by FACScan (Becton Dickinson, Franklin Lakes, NJ, USA), cells (either in medium supplemented with serum or under serum-free conditions) were incubated with the indicated concentrations of PNAs for different lengths of time, harvested and washed. The cells (3×10^5) were then analysed with the aid of the CellQuest version 3.3 software (Becton Dickinson), with use of the FL1 channel to detect green fluorescence. The results were expressed as median fold (i.e., the ratio between the median fluorescence intensity values obtained in the presence and in the absence of treatment, respectively). A graphic presentation of data was finally obtained through histograms, showing the number of cells versus the expressed fluorescence intensity. In some experiments we pre-incubated fluorescence-labelled PNAs (2 μM) for 10 min at room temperature in the dark with trypsin/EDTA (0.05 %, 2 and 4 μL) before addition to the cells.

[2] = tested on: K562 cells; test: Cellular uptake of fluorescein-labelled PNAs by FACS analysis; format: cell-based, human; details: 24 h incubation; for change of cellular uptake in the presence of serum: medium with serum vs serum-free, FACS
Experimental: We therefore studied the uptake of backbone-modified PNAs in the same cellular model and compared the obtained results with those observed in the study of PNA1 and PNA2. K562 cells were incubated in the presence of increasing concentrations of fluorescein-labelled PNAs (PNA1–6-Fl) for 24 and 48 h and analysed by fluorescence-activated cell sorting analysis (FACS), giving the results shown in Figure 3. Because different PNA structures could be affected by proteases present in serum, leading to different cellular uptakes, these experiments were conducted both in the presence and in the absence of serum.
Human cell lines and culture conditions: Human leukaemia K562 cells were cultured under humidified CO2 (5 %)/air in RPMI 1640 medium (Sigma) supplemented with foetal bovine serum (FBS, 10 %, Analitical de Mori, Milan, Italy), penicillin (50 units mL^−1) and streptomycin (50 μg mL^−1).[26] Mithramycin (MTH) was from Sigma. Stock solutions of MTH (100 μM) were stored at −20 °C in the dark and diluted immediately before use. Treatment of K562 cells with MTH was carried out by addition of the appropriate drug concentrations at the beginning of the cultures (cells were seeded at 30 000 mL^−1). The medium was not changed during the induction period. To determine antiproliferative activity, cell growth was studied by determining the cell number per mL with a Z1 Coulter Counter (Coulter Electronics, Hialeah, FL, USA). Erythroid differentiated K562 cells containing haemoglobin were detected by specific reaction with a benzidine/hydrogen peroxide solution as reported elsewhere.[26] The final concentration of benzidine was 0.2 % in glacial acetic acid (5 M) and H2O2 (10 %).
as §1

[3] = tested on: RNA1 (target region of miR-210); test: Melting temperature (Tm) of PNA:RNA duplexes, full-match RNA; format: binding; details: UV absorbance at 260 nm, strand concentration 5 μM; for Tm, RNA1 in water: PBS buffer pH 7, no urea; for Tm, RNA1 in urea (5 M): PBS buffer pH 7 with urea 5 M
Experimental: (§2) Measurements of Tm values: The Tm values were determined with a Lambda Bio 20 spectrophotometer and a Peltier PTP6 temperature programmer. Thermal denaturation profiles were measured by monitoring the absorbance at 260 nm from 18 to 90 °C with a heating rate of 1 °C min^−1 and recording every 0.1 °C. […]

[4] = tested on: RNA2 (mismatched RNA, G→U); test: Melting temperature (Tm) of PNA:RNA duplexes, single-mismatch RNA; format: binding; details: UV absorbance at 260 nm, PBS buffer pH 7 with urea 5 M, strand concentration 5 μM
Excerpt: (§3) Sequence selectivity is a very important issue in view of the use of PNAs in cellular systems, because partial hybridisation might occur with other unrelated miRNAs or, most importantly, with mRNA targets. We analysed the sequence selectivities of our PNAs with stricter models (DNA2 and RNA2) involving single base mismatches (G→T or G→U) located in the middle of the target sequences. In each case the sequence selectivity was confirmed by significant lowering of the melting temperature. The ranges of ΔTm due to the presence of these single mismatches were 8–21 °C for DNA, with the maximum drop in the case of PNA4 and the minimum observed in that of PNA6. For the latter it should be considered that the mismatch was facing the last chiral monomer, preventing the cooperative effect observed in the case of 2D-modifed highly constrained PNA.[22]
(§4) Measurements of Tm values: The Tm values were determined with a Lambda Bio 20 spectrophotometer and a Peltier PTP6 temperature programmer. Thermal denaturation profiles were measured by monitoring the absorbance at 260 nm from 18 to 90 °C with a heating rate of 1 °C min^−1 and recording every 0.1 °C. Measurement conditions: [PNA]=[DNA] or [RNA]=5 μM in PBS buffer [pH 7.0, NaCl (100 mM), NaH2PO4⋅H2O (10 mM), EDTA (0.1 mM)] with urea (5 M).

[5] = tested on: DNA1 (full-match antiparallel DNA); test: Melting temperature (Tm) of PNA:DNA duplexes, full-match DNA; format: binding; details: UV absorbance at 260 nm, strand concentration 5 μM; for Tm, DNA1 in urea (5 M): PBS buffer pH 7 (NaCl 100 mM, NaH2PO4 10 mM, EDTA 0.1 mM) with urea 5 M; for Tm, DNA1 in water: PBS buffer pH 7, no urea, 18 to 90 °C at 1 °C/min
Experimental: as §2

[6] = tested on: DNA2 (mismatched DNA, G→T); test: Melting temperature (Tm) of PNA:DNA duplexes, single-mismatch DNA; format: binding; details: for Tm, DNA2 in urea (5 M): single mismatch, UV absorbance at 260 nm, PBS buffer pH 7 with urea 5 M, strand concentration 5 μM
Excerpt: as §3, §4

[7] = tested on: miR-210; test: miR-210 content by RT-qPCR analysis; format: cell-based, human; details: K562 cells, 24 h; for miR-210 inhibition upon treatment with mithramycin: PNA 2 μM with MTH 15 nM, relative to pept-1 and MTH; for inhibition of miR-210 bioavailability (miR-210 content): PNA 2 μM, Figure 5 A and B, relative to pept-1
Experimental: K562 cells were treated with 15 nM mithramycin in the presence of a PNA (2 μM), and after 24 h RNA was isolated and miR-210 was assayed by RT-qPCR analysis. This type of test has been used to evaluate miR content in many studies because it allows the free-miR content to be evaluated. […] Figure 5 A and B reports the obtained data, showing that inhibition of miR bioavailability was induced both with the modified PNA and with the peptide-conjugated one, whereas in the case of PNA1 it was unchanged. […] This might be related to inhibition of pre-miR maturation or to unavailability of the miR to the qRT-PCR analysis due to strong complexation with the PNA. In either case the bioavailability of the miR for targeting other genes should be reduced.
Transfection procedures: Anti-miR-210 PNAs were directly added to the cellular medium to reach the indicated final concentrations. K562 cells were cultured in 24-well plates starting from the initial density of 30 000 cells per mL. MTH was administrated together with anti-miR PNAs.
RNA extraction: Cells were isolated by centrifugation at 1500 rpm for 10 min at 4 °C, washed in PBS and lysed in Tri-reagent (Sigma–Aldrich) according to the manufacturer's instructions. The isolated RNA was washed once with cold ethanol (75 %), dried and dissolved in ultrapure nuclease-free water.
Real-time quantitative PCR: For microRNA quantification with real-time RT-PCR reagents, the primers and probes were obtained from Applied Biosystems. Reverse transcriptase (RT) reactions were performed with a TaqMan MicroRNA Reverse Transcription Kit (Applied Biosystems) for hsa-miR-210, hsa-miR-10a, hsa-miR-93, hsa-miR-99b, hsa-miR-126, hsa-miR-149, hsa-miR-424, hsa-miR-483-5p, hsa-miR-625, hsa-let-7c and the iQTM5 real-time PCR System Instrument (Bio-Rad). Relative expression was calculated by the comparative cycle threshold method and U6 microRNA was used as reference gene to normalise all RNA samples, because it is constant in the assayed samples by miR-profiling and quantitative RT-PCR analysis as previously reported.[25]

For “Flu-AEEA-R8-CCGCTGTCACACGCACAG-NH2 [PNA2-Fl, fluorescein-labelled R8-conjugated PNA2, reference compound]”, the “effect of trypsin pre-incubation on cellular uptake” value (“effect of trypsin pre-incubation” for short) [1] was “trypsin treatment affects the cellular uptake”, the “change of cellular uptake in the presence of serum” value (shortened to “change of cellular uptake”) [2] was “decreased uptake” and the “cellular uptake (internalisation) in the absence of serum” value ([2]; serum-free, FACS FL1 channel) was “efficiently internalised”.

For “Fl-AEEA-CC5LArgGC5LArgTG5LArgTC5LArgAC5LArgAC5LArgGC5LArgAC5LArgAG-NH2 [PNA3-Fl, fluorescein-labelled PNA3]”, the “effect of trypsin pre-incubation” value [1] was “does not affect uptake” and the “change of cellular uptake” value [2] was “only minor decreases in uptake”.

With “H-CC2DARGGC2DARGTG2DARGTC2DARGAC2DARGAC2DARGGC2DARGAC2DARG AG-NH2 [PNA5, 2D Arg (C2) backbone-modified 18-mer PNA, model 1, alternating modified monomers]” the “Tm, RNA1 in water” value [3] was >90 °C, the “Tm, RNA1 in urea (5 M)” value [3] was 78 °C and the “Tm, RNA2 in urea (5 M)” value [4] was 62 °C. For the same substance, the “Tm, DNA1 in urea (5 M)” value [5] was 74 °C, the “Tm, DNA1 in water” value [5] was >90 °C and the “Tm, DNA2 in urea (5 M)” value [6] was 64 °C. For the same substance, the “miR-210 inhibition upon treatment with mithramycin” value [7] was “significant inhibition, but to lesser extents” and the “inhibition of miR-210 bioavailability (miR-210 content)” value [7] was “less efficient inhibition”.

In the case of “H-C2DArgC2DArgG2DArgC2DArgT2DArgG2DArgT2DArgC2DArgACACGCACAG-NH2 [PNA6, 2D Arg (C2) backbone-modified 18-mer PNA, model 2, stretch of consecutive modified monomers]”, the “Tm, RNA1 in water” value [3] is reported as >90 °C, the “Tm, RNA1 in urea (5 M)” value [3] is reported as 75 °C and the “Tm, RNA2 in urea (5 M)” value [4] is reported as 65 °C. For the same substance, the “Tm, DNA1 in urea (5 M)” value [5] was 77 °C, the “Tm, DNA1 in water” value [5] was >90 °C and the “ΔTm due to single mismatch, DNA” value ([6]; DNA1 vs DNA2 (G→T in the middle of the target), urea 5 M) was 8 °C. The “Tm, DNA2 in urea (5 M)” value [6] was 69 °C, the “miR-210 inhibition upon treatment with mithramycin” value [7] was “significant inhibition, but to lesser extents” and the “inhibition of miR-210 bioavailability (miR-210 content)” value [7] was “Stronger inhibition”.

With “Fl-AEEA-CC2DArgGC2DArgTG2DArgTC2DArgAC2DArgAC2DArgGC2DArgAC2DArg AG-NH2 [PNA5-Fl, fluorescein-labelled PNA5]” the “effect of trypsin pre-incubation” value [1] was “does not affect uptake” and the “change of cellular uptake” value [2] was “no decreases in uptake”.

In the case of “Fl-AEEA-C2DArgC2DArgG2DArgC2DArgT2DArgG2DArgT2DArgC2DArgACACGCACAG-NH2 [PNA6-Fl, fluorescein-labelled PNA6]”, the “effect of trypsin pre-incubation” value [1] is reported as “does not affect uptake” and the “change of cellular uptake” value [2] is reported as “no decreases in uptake”.

With “Fl-AEEA-C5LArgC5LArgG5LArgC5LArgT5LArgG5LArgT5LArgC5LArgACACGCACAG-NH2 [PNA4-Fl, fluorescein-labelled PNA4]” the “effect of trypsin pre-incubation” value [1] was “does not affect uptake” and the “change of cellular uptake” value [2] was “only minor decreases in uptake”.
